# Data as given in publication PMC11480511 (Scientific Reports, 2024).
# Like-named read-outs stand apart in the source and are kept apart here.
# Tests used:
# [1] = tested on: melanoma LOX IMVI cell line; assay: Cell cycle analysis, propidium iodide flow cytometry; type: cell-based, human; conditions: LOX IMVI treated at IC50 concentration
# Method: The effect of compound 3i on cell cycle progression of LOX IMVI cell line was evaluated using Propidium Iodide Flow Cytometry Kit to measure the DNA content according to the reported protocols. The LOX IMVI cells used in this work were obtained from the American Type Culture Collection. Cells were cultured in DMEM (Invitrogen/Life Technologies) supplemented with 10% FBS (Hyclone), 10 µg/ml insulin (Sigma), and 1% penicillin-streptomycin. The remaining chemicals and reagents were all from Sigma or Invitrogen. Growth media was removed, cells washed with warm PBS and aspirated. Adhered cells were detached from media by addition of 5 ml 10% trypsin/EDTA and incubated 2 min in the incubator. The suspended cells harvested, aspirated to a falcon tube, centrifuged at 2000 rpm for 5 min. Cell count performed after suspending the cells into a fresh media and stained with trypan blue, counted and used for preparation of the appropriate number of cells.
# normal cell line WI 38 = assay: MTT cytotoxicity assay on normal cells; type: cell-based; conditions: Homo sapiens; normal cell line WI 38, MTT assay, ± SEM; read-out: IC50 W138 normal cell line (µM ± SEM)
# Method: After 24 h of culture incubation and supernatants discarded. […] Each test should include a blank containing complete medium without cells. […] Add reconstituted MTT in an amount equal to 10% of the culture medium volume. […] Spectrophotometrically absorbance was measured at a wavelength of 570 nm. […] Results from all experiments were recorded and the percentage of viable cells was calculated.
# Bax = assay: Western blot of protein expression in LOX IMVI cells; type: cell-based, human; conditions: control = 1
# Method: (§1) To evaluate the expression level of the apoptosis modulatory markers Bax, caspase 3 and PARP-1, western blot was performed as formerly described. Three different groups of LOX IMVI cells were permitted to grow to reach 70–80% confluence in […] flasks. The first group of LOX IMVI cells was treated with compound 3i. […] The media was taken out after 48 h, and cells underwent three rounds of ice-cold PBS washing. RIPA lysis buffer [consisting of Tris-HCl pH 7.6 (25 mM), NaCl (150 mM), EDTA (5 mM), NP-40 or Triton X-100 (1%), sodium deoxycholate (1%), SDS1 (1%)] with the proper phosphatase and a protease inhibitor was used to create the whole-cell lysate for 30 min. After centrifuging the mixture at 12,000 rpm for 20 min and sonicating it for five minutes, the supernatant was collected, split into aliquots, and kept at -80 °C. The Biuret method was used to determine protein content[27],[28]. Proteins in each matched cell lysate were denatured in 2 Laemmli buffer containing 5% β--mercaptoethanol at 95 °C for 5 min. For SDS-PAGE electrophoresis, 20 µg of protein per lane were loaded at 100 volts through a 6% stacking gel, then at 125 volts through a 10% resolving gel for around 2 h, and then transferred to a PVDF membrane using a semidry transfer apparatus (made by Cleaver Scientific) for 25 min. The PVDF membrane was first incubated for one hour at 4 °C in TBS buffer containing 0.1% Tween (TBST) and 5% fat-free milk, then overnight at 4 °C with monoclonal anti-Bax, anti-PARP-1, and anti-caspase-3 as primary antibodies (Cell Signalling Technology) at a dilution of 1:500. Membranes were first treated overnight, then three times washed in TBST buffer, then incubated at room temperature for 60 min with the corresponding HRP (horse radish peroxidase)-linked secondary antibodies (Dako). Then the substrate for the chemiluminescent Western ECL (Perkin Elmer, Waltham, MA) was added to the blot as described by the manufacturer by incubating the membranes with equal volumes of ECL solution A and ECL solution B for 1 min.
# active caspase-3 = assay: as above; type: cell-based, human; conditions: control = 1
# Method: as §1
# PARP-1 = assay: as above; type: cell-based, human; conditions: control = 1
# Method: as §1
# [2] = tested on: A498 renal cancer cell line; assay: cells; conditions: Homo sapiens
# topoisomerase IIβ = target: T1, topoisomerase IIβ (Homo sapiens, UniProt Q02880); assay: Topoisomerase II inhibition, human DNA topoisomerase Elisa kit; type: biochemical
# T1 construct: purchased
# Method: (§2) Two folds of serial dilution was accomplished after standards and the tested compounds were dissolved in sample diluent. Horseradish peroxidase (HRP-avidin) and biotin-conjugated antibody were diluted 10 times each. Each well received 100 µL of each concentration of the standard or test chemicals, which were then added and incubated at 37 °C for 60 min. […] The microtiter plate was rinsed three times and given room to aspirate. After that, the plate was incubated at 37 °C for 60 min with 100 µL of HRP-avidin solution added to each well. After that, the plate was aspirated and cleaned 5 times. Each well received 90 µL of TMB substrate, and the plate was incubated for 30 min. at 37 °C in a light-protected environment. Finally, stop solution (50 µL) was loaded, and within 5 min, the absorbance at 450 nm was measured spectrophotometrically.
# (§3) Topoisomerase enzyme assay
# (§4) Topoisomerase I and II inhibitory activity […]
# (§5) topoisomerase IIβ inhibitory activity utilizing the human DNA topoisomerase Elisa kit.
# (§6) Standards and the tested compound were dissolved in sample diluent and 2 folds serial dilution was achieved. Biotin-conjugated antibody and avidin conjugated Horseradish Peroxidase (HRP-avidin) were diluted to 10 folds. 100 μL of each concentration of standard or test compound were added to each well. Incubate at 37 °C for 1 h. The liquid in each well was removed. 10 0 μL of Biotin-conjugated antibody solution was added to each well followed by incubation for 1 h at 37 °C. The microtiter plate was allowed to aspirate and washed 3 times. 100 μL of avidin conjugated Horseradish Peroxidase (HRP -avidin) solution was added to each well and the plate was incubated for 1 h at 37 °C. The plate was aspirated and washed 5 times. 90 μL of TMB substrate were added to each well and the plate was incubated for 30 min at 37 °C and protected from light. 50 μL stop so lution was added. The absorbance was measured spectrophotometrically within 5 min at 450 nm .
# human melanoma LOX IMVI [3] = assay: cells
# [4] = tested on: melanoma LOX IMVI cell line; assay: Annexin V-FITC/PI apoptosis and necrosis assay; type: cell-based, human; conditions: LOX IMVI treated with IC50 concentration
# Method: Following the manufacturer’s instructions, the Annexin V-FITC Apoptosis Detection Kit (Bio Vision Research Products, USA) was used to analyze cell apoptosis. Briefly, 500 µL of 1X Binding buffer was used to resuspend 1-5 × 10^5 cells that had been harvested by centrifugation. Propidium iodide (PI, 50 mg/ml) and Annexin V-FITC, each administered in 5 µL, were also added. The cells were first incubated for 5 minutes at room temperature in the dark before being analyzed using the Annexin V-FITC binding flow cytometric technique (Ex = 488 nm; Em = 530 nm) with a FITC signal detector (typically FL1) and PI staining with a phycoerythrin emission signal detector (typically FL2). Before exposing adherent cells to Annexin V-FITC, we gently trypsinized and gave them a single wash in serum-containing medium (A.3–5). Cell synchronisation is done using Double-thymidine synchronization method and the used Media is double modifed eagle media (DMEM).
# Cell cycle analysis and detection of apoptosis
# Annexin V-FITC apoptosis assay
# Cell apoptosis were analyzed by the Annexin V-FITC Apoptosis Detection Kit (Bio Vision Research Products, USA). Thereafter, 1-5 x 10^5 cells were collected by centrifugation and resuspend in 500 μl of 1X Binding Buffer. Added 5 μl of Annexin V-FITC and 5 μl of propidium iodide (PI 50mg/ml, optional.). The cells incubated at room temperature for 5 min in the dark; Analyzed by Annexin V-FITC binding flow cytometric method (Ex = 488 nm; Em = 530 nm) using FITC signal detector (usually FL1) and PI staining by the phycoerythrin emission signal detector (usually FL2). For adherent cells, we gently trypsinized and washed cells once with serum-containing media before incubation with Annexin V-FITC (A.3-5). […]
# [5] = tested on: MDA-MB-231 breast adenocarcinoma; set-up: method as in PMID 24287557; conditions: cited from earlier work
# [6] = tested on: MCF-7 breast adenocarcinoma cell line; set-up: method as in PMID 24287557; conditions: cited from earlier work
# [7] = tested on: A549 lung cancer cell line; set-up: method as in PMID 27614408; conditions: cited from earlier work
# [8] = tested on: P. aeruginosa ATCC 27,853; assay: Antibacterial screening, agar cup diffusion method; type: cell-based; conditions: Pseudomonas aeruginosa, ATCC27; Gram –ve strain; read-out: Minimum inhibitory concentrations (MIC, µM) P. aeruginosa ATCC 27,853
# S. aureus ATCC 6538 = assay: Antibacterial screening, agar cup diffusion method; type: cell-based; conditions: Staphylococcus aureus, ATCC6538; Gram + ve strain; read-out: Minimum inhibitory concentrations (MIC, µM) S. aureus ATCC 6538
# Method: (§7) Anti-bacterial activity of the recently synthesized compounds 3a-k was evaluated at AUMC (Assiut University Mycological Centre), Assiut, Egypt. Assays were done against Gram-negative strains of K. pneumoniae (ATCC 100310, E. coli (ATCC 25922), Pseudomonas aeruginosa (ATCC 27853) and the Gram-positive S. aureus (ATCC 6538) strain utilizing standard agar cup diffusion method. The isolates from the four bacterial species examined were kept in TSB (Trypticase Soya Broth, Becton and Dickinson) with 10% glycerol at -70 °C and then subcultured on TSA (Trypticase Soya Agar, Becton and Dickinson) and TSB for 24 h at 37 °C former to inoculation. Bacterial isolates were then plated on sterile petri plates with 1 × 10^8 CFU/mL (0.5 McFarland turbidity) and 20 mL of Mueller Hinton Agar media (Oxoid) was then loaded. To ensure that the microorganisms were evenly dispersed, the plates were gently rotated before being left to harden on a level surface. Four equally spaced spherical-shaped wells (10 mm diameter) were painstakingly drilled using a sterilized cork bore after media solidification. All tested compounds under test underwent two-fold serial dilutions in a sequential manner. Three replications of 100 µL of each concentration were added to a well using a micropipette. Plates were then incubated for 24-hour at 37 °C. The average of the inhibition zones was then calculated. To determine the MICs, the natural logarithm of each diluted test substance’s concentration was plotted against the average area of the related inhibition zone. Following that, a regression line was created and the intercept on the ‘ln concentration” axis was determined, and the antilogarithm was calculated to indicate the MIC value[34],[63].
# E. coli ATCC 25,922 = assay: Antibacterial screening, agar cup diffusion method; type: cell-based; conditions: Escherichia coli, ATCC25, Gram –ve strain; read-out: Minimum inhibitory concentrations (MIC, µM) E. coli ATCC 25,922
# Method: as §7
# [9] = tested on: K. pneumoniae ATCC 10,031; assay: Antibacterial screening, agar cup diffusion method; type: cell-based; conditions: read-out: Minimum inhibitory concentrations (MIC, µM) K. pneumoniae ATCC 10,031
# Method: as §7
# Jurkat cells = conditions: cited from earlier work
# [10] = tested on: MDA-MB-231 triple negative breast cancer cell line; set-up: method as in earlier work; conditions: cited from earlier work
# human melanoma LOX IMVI [11] = conditions: read-out: In vitro cytotoxicity (IC50) LOX IMVI (µM ± SEM), MTT assay
# [12] = tested on: A498 renal cancer cell line; conditions: read-out: In vitro cytotoxicity (IC50) A498 cell line (µM ± SEM), A498, MTT assay
# topoisomerase Iα = target: T2, topoisomerase Iα (Homo sapiens, UniProt P11387); assay: Topoisomerase I inhibition, human DNA topoisomerase Elisa kit; type: biochemical; conditions: ± SEM
# T2 construct: purchased
# T2 sequence (P11387 1-765): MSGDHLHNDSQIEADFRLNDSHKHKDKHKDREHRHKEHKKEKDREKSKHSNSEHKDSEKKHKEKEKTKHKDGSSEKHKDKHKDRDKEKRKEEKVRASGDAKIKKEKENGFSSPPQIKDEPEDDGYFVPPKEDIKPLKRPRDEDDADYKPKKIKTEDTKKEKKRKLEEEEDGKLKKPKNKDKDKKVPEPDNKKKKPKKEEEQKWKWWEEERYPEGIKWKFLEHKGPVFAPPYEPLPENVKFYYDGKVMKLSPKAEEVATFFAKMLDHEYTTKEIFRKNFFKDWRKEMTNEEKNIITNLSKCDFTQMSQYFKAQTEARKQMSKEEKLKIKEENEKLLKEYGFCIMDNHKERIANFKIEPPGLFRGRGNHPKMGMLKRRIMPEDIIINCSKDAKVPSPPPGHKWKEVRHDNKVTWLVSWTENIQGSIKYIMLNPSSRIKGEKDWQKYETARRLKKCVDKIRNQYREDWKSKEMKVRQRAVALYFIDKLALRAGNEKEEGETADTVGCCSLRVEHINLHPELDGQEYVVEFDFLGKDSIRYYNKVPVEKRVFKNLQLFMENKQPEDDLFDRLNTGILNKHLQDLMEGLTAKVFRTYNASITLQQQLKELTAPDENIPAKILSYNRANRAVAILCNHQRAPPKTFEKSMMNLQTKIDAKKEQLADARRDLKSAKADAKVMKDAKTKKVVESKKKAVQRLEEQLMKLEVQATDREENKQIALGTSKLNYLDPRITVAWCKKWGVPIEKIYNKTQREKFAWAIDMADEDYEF
# Method: as §2, §3, §4, §5, §6
# T1 sequence (Q02880 whole entry): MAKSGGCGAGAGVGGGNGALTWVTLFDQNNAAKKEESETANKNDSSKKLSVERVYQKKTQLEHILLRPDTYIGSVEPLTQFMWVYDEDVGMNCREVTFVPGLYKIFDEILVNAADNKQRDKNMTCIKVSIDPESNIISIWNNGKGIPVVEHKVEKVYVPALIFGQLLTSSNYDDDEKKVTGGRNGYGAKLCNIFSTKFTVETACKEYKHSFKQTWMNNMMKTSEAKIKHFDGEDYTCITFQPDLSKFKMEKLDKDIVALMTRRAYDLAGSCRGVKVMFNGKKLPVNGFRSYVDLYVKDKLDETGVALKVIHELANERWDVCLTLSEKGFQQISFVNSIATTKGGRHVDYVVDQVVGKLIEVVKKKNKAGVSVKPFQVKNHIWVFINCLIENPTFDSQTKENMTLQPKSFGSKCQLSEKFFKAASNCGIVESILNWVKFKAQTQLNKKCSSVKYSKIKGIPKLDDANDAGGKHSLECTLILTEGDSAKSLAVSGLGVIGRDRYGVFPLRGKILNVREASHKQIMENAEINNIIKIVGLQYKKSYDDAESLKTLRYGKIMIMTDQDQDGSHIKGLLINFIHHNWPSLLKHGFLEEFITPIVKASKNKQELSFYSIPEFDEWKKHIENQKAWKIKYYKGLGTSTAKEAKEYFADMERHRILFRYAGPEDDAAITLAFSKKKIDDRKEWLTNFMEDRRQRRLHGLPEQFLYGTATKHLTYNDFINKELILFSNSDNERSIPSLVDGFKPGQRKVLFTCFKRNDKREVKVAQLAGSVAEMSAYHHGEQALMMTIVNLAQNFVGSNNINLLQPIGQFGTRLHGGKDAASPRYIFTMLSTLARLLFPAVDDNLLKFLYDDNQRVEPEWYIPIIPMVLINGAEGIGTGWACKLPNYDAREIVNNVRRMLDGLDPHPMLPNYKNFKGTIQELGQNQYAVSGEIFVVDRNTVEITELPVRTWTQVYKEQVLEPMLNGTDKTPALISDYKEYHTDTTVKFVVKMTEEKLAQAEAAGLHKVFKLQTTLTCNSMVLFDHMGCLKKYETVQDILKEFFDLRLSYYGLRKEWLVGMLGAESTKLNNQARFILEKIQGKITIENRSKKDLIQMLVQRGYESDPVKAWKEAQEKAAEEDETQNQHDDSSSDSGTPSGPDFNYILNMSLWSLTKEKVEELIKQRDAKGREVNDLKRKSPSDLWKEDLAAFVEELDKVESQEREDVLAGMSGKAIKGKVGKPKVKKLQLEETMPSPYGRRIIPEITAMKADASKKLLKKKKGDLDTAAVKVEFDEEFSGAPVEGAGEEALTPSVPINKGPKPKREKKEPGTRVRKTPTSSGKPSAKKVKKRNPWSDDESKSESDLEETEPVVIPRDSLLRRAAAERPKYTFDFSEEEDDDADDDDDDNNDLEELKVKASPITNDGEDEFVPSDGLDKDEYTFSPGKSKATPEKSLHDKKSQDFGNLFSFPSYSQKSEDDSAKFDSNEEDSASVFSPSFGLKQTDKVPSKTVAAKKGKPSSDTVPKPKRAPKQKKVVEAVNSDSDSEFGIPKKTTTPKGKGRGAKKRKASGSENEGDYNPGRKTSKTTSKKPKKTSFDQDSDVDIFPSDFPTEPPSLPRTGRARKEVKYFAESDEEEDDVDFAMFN
structure (smiles),measurement,setting,value
"COc1cccc2c1C(=O)c1c(O)c3c(c(O)c1C2=O)C[C@@](O)(C(=O)CO)C[C@@H]3O[C@H]1C[C@H](N)[C@H](O)[C@H](C)O1 [Doxorubicin, reference compound]",%G0-G1 DNA content,[1],37.85%
same,%G2/M DNA content,[1],5.94%
same,%Pre-G1 DNA content,[1],46.29%
same,%S DNA content,[1],56.21%
same,IC50,normal cell line WI 38,18.1 ± 0.98 µM
same,Bax OD,Bax,6.56
same,Caspace-3 Optical density (OD),active caspase-3,5.67
same,PARP-1 OD,PARP-1,0.38
same,viability at 0.4 µM,[2]; A498,64.5%
same,viability at 1.6 µM,[2]; A498,55.3%
same,viability at 25 µM,[2]; A498,37.6%
same,viability at 100 µM,[2]; A498,26.6%
same,IC50,"[2]; A498, read-out: In vitro cytotoxicity (IC50) A498 cell line (µM ± SEM)",3.59 ± 0.2 µM
same,IC50,topoisomerase IIβ,6.49 ± 0.35 µM
same,viability at 0.4 µM,human melanoma LOX IMVI [3],70.4%
same,viability at 1.6 µM,human melanoma LOX IMVI [3],58.2%
same,viability at 25 µM,human melanoma LOX IMVI [3],42.6%
same,viability at 100 µM,human melanoma LOX IMVI [3],30.4%
same,IC50,human melanoma LOX IMVI [3]; read-out: In vitro cytotoxicity (IC50) LOX IMVI (µM ± SEM),7.03 ± 0.4 µM
same,Apoptosis Early,[4],1.94%
same,Apoptosis Late,[4],28.53%
same,Apoptosis Total,[4],46.29%
same,Necrosis,[4],15.82%
Cc1ccc(C(=O)CN2C(=O)S/C(=C\C3=C(Cl)c4cc(C)c(C)cc4CCC3)C2=O)cc1 [IV],IC50,[5],13.39 ± 0.04 µM
same,IC50,[6],1.91 ± 0.03 µM
Cn1c(/C=C2\SC(=O)N(CC(=O)Nc3nc(-c4ccccc4)cs3)C2=O)nc2ccccc21 [V],IC50,[7],11.5 ± 1.46 µM
"O=C(O)c1cn(C2CC2)c2cc(N3CCNCC3)c(F)cc2c1=O [Ciprofloxacin, reference compound]",MIC,[8],0.06 µM
same,MIC,S. aureus ATCC 6538,5.49 µM
same,MIC,"E. coli ATCC 25,922",0.04 µM
same,MIC,[9]; Gram –ve strain,0.10 µM
same,MIC,"[9]; Klebsiella pneumoniae, ATCC10, Gram –ve strain",0.1 µM
same,effect on proliferation of Jurkat cells,Jurkat cells; concentration of 25 µg/mL,inhibit the proliferation
same,apoptosis in Jurkat cells,Jurkat cells; doses higher than 80 µg/mL,induced apoptosis
O=C(CN1C(=O)S/C(=C\c2cc(-c3ccc(Cl)cc3)c3[nH]c4ccccc4c3c2)C1=O)N1CCOCC1 [VI],IC50,[10],0.97 ± 0.13 µM
"N.N.[Cl][Pt][Cl] [Cisplatin, reference compound]",IC50,human melanoma LOX IMVI [11],5.07 ± 0.29 µM
same,IC50,[12],7.92 ± 0.45 µM
same,IC50,topoisomerase Iα,5.71 ± 0.31 µM
same,IC50,"topoisomerase IIβ; ± SEM, read-out: Topoisomerase II IC50 µM ± SEM",11.3 ± 0.62 µM
